Results: paper PMC8242589, “Cardiac Safety of Kinase Inhibitors – Improving Understanding and Prediction of Liabilities in Drug Discovery Using Human Stem Cell-Derived Models” (Frontiers in Cardiovascular Medicine, 2021)
“Also recorded” adds a separate entry of the source.

Key:
ROCK1 = settings: ref [36] (RKI-1447), [37], [38] (Fasudil), [39]–[43] (Y-27632), [44], [45] (GSK-429286); read-out: Target IC50 ROCK1; cited from earlier work
ROCK2 = settings: ref [36] (RKI-1447), [37], [38] (Fasudil), [39]–[43] (Y-27632), [44], [45] (GSK-429286); read-out: Target IC50 ROCK2; cited from earlier work
[1] = tested on: hSC-CMs (Cor.4U Cardiomyocytes); experiment: CardioExcyte 96 impedance and EFP recording (beating rate, base impedance); assay type: cell-based, human; settings: for BR / Base Imp: vs baseline before drug (taken as 100%)
Procedure, shortened: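 hSC-CM monolayers (Cor.4U), cultured 4 days at 37 °C, 5% CO2, recorded spontaneously beating; impedance sampled at 1 kHz, EFP at 10 kHz. Beating rate taken as reciprocal of inter-spike interval in EFP. Each test concentration expressed as fractional change versus pre-drug baseline (100%).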

[2] = tested on: hSC-CMs (Cor.4U Cardiomyocytes); experiment: Apoptosis assay (CellEvent Caspase-3/7 Green, IncuCyte ZOOM kinetics over 24 h); assay type: cell-based, human; design: key to Caspase / Caspase MEAN: % of time-matched vehicle control (green object area); settings: for Caspase: normalized to time-matched vehicle control; for Apoptosis (caspase-3/7 activity) at the highest test concentration, in words: top / highest test concentration, over 24 h
Procedure, shortened: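 Cor.4U cardiomyocytes were cultured 4 days at 5% CO2 and 37 °C, given a 2 h baseline, then treated with compound for 24 h. Caspase-3/7 green nuclear signal was imaged every 2 h, and total green object area per well (μm^2/well) was normalized to the time-matched vehicle control. At least three replicates were run per concentration.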

[3] = tested on: hSC-CMs (Cor.4U Cardiomyocytes); experiment: ATP assay (CellTiter-Glo Luminescent Cell Viability Assay); assay type: cell-based, human; settings: normalized to time-matched DMSO control
Procedure, shortened: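 Human stem-cell-derived Cor.4U cardiomyocytes (25,000–30,000/well), cultured 4 days at 37 °C, switched to serum-free BMCC medium 12 h before dosing. Cellular ATP quantified by CellTiter-Glo luminescence and normalized to time-matched DMSO controls; at least three replicates per concentration.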

## CC1=C(C(=O)Nc2cc3cn[nH]c3cc2F)C(c2ccc(C(F)(F)F)cc2)CC(=O)N1 (stereo not shown) [GSK-429286]
ROCK1
  IC50: 0.014 µM
ROCK2
  IC50: 0.063 µM
[1]; 0.01 µM, 2h
  BR: 102
  Base Imp: 99
[1]; 0.01 µM, 24h
  BR: 100
  Base Imp: 92
[1]; 0.1 µM, 2h
  BR: 102
  Base Imp: 91
[1]; 0.1 µM, 24h
  BR: 106
  Base Imp: 85
[1]; 1 µM, 2h
  BR: 105
  Base Imp: 83
[1]; 1 µM, 24h
  BR: 109
  Base Imp: 72
[1]; 10 µM, 2h
  BR: 98
  Base Imp: 69
[1]; 10 µM, 24h
  BR: 88
  Base Imp: 58
[1]; hSC-CMs, 2 and 24 h
  Effect on base impedance, in words: concentration-and time-dependent decrease in base impedance; also recorded: concentration-dependent effects
[2]; 0.01 µM, 2h
  Caspase: 95
[2]; 0.01 µM, 24h
  Caspase: 97
[2]; 0.1 µM, 2h
  Caspase: 109
[2]; 0.1 µM, 24h
  Caspase: 103
[2]; 1 µM, 2h
  Caspase: 104
[2]; 1 µM, 24h
  Caspase: 105
[2]; 10 µM, 2h
  Caspase: 116
[2]; 10 µM, 24h
  Caspase: 127
[2]
  Apoptosis (caspase-3/7 activity) at the highest test concentration, in words: marginal effects
[3]; 0.01 µM, 2h
  ATP: 101
[3]; 0.01 µM, 24h
  ATP: 101
[3]; 0.1 µM, 2h
  ATP: 101
[3]; 0.1 µM, 24h
  ATP: 96
[3]; 1 µM, 2h
  ATP: 102
[3]; 1 µM, 24h
  ATP: 96
[3]; 10 µM, 2h
  ATP: 104
[3]; 10 µM, 24h
  ATP: 102

## C[C@@H](N)C1CCC(C(=O)Nc2ccncc2)CC1.Cl.Cl (stereo partly shown) [Y-27632]
ROCK2
  IC50: 0.089 µM
[1]
  Effect on beating rate, in words: reduced cardiomyocyte beating at both 2 h and 24 h time points
[1]; 0.3 µM, 2h
  BR: 101
  Base Imp: 89
[1]; 0.3 µM, 24h
  BR: 95
  Base Imp: 88
[1]; 3 µM, 2h
  BR: 99
  Base Imp: 89
[1]; 3 µM, 24h
  BR: 100
  Base Imp: 85
[1]; 30 µM, 2h
  BR: 99
  Base Imp: 80
[1]; 30 µM, 24h
  BR: 101
  Base Imp: 67
[1]; 300 µM, 2h
  BR: 76
  Base Imp: 61
[1]; 300 µM, 24h
  BR: 68
  Base Imp: 54
[1]; 300 uM, unlabelled side calculation under the 24h data
  Secondary beats at 300 uM, MEAN: 103.939
[2]; 0.3 µM, 2h
  Caspase: 119
[2]; 0.3 µM, 24h
  Caspase: 94
[2]; 3 µM, 2h
  Caspase: 163
[2]; 3 µM, 24h
  Caspase: 129
[2]; 30 µM, 2h
  Caspase: 104
[2]; 30 µM, 24h
  Caspase: 163
[2]; 300 µM, 2h
  Caspase: 96
[2]; 300 µM, 24h
  Caspase: 306
[2]; highest test concentrations only
  Time of notable raise in the caspase-3/7 activity: 12 to 18 h
[2]
  Apoptosis (caspase-3/7 activity) at the highest test concentration, in words: slow initial phase followed by a notable raise in the caspase-3/7 activity
[3]; 0.3 µM, 2h
  ATP: 105
[3]; 0.3 µM, 24h
  ATP: 100
[3]; 3 µM, 2h
  ATP: 102
[3]; 3 µM, 24h
  ATP: 101
[3]; 30 µM, 2h
  ATP: 103
[3]; 30 µM, 24h
  ATP: 103
[3]; 300 µM, 2h
  ATP: 109
[3]; 300 µM, 24h
  ATP: 104
